Patent publication US20040081688A1, “Amphiphilic lipid nanoparticles for peptide and/or protein incorporation” (priority 2000, published 2004)

Key:
[1] = Antide semi-quantitative solubility evaluation (maximum loading) in lipids; format: physicochemical; conditions: Antide maximum loading in the lipid named in the row
[2] = Partition coefficient octanol/water; format: physicochemical; conditions: 24 hours at room temperature, ratio of drug concentration in organic and water phase by RP-HPLC
Protocol: Partition coefficient: it was determined using octanol as organic phase and water as hydrophilic phase. The two phases were first saturated with each other for 24 hours at room temperature. Antide was then dissolved in the water phase at a concentration well below saturation. An equal volume of organic phase was subsequently added to the water phase and the mixture was kept under stirring for 24 hours at room temperature. Antide concentration in the two phases was determined by RP-HPLC and the partition coefficient was obtained from the ratio between the drug concentration in organic and water phase.
The resulting octanol/water coefficient was 8.56·10^−2

Antide loading (%) [1]	octanol/water coefficient [2]	Compound
3.7 × 10^−2 - not soluble %		CCCCCCCCCCCCCCCCO [Cetil alcohol]
	8.56·10^−2	N-Ac-D-2-Nal, D-pClPhe, D-3-Pal, Ser, NicLys, D-NicLys, Leu, Ilys, Pro, D-Ala, NH2 [Antide]
